Key:
Type in all cases: in vivo
[1] = test system: diamondback moth (Plutella xylostella); experiment: Insecticidal effect on diamondback moth (Test Example 1); conditions: for Insecticidal effect on diamondback moth (Test Example 1), judged grade: mortality judged according to the criterion shown in Test Example 1; for Insecticidal effect, Test Example 1 / Insecticidal effect (Test Example 1), judged from mortality: diamondback moth; for Insecticidal effect (Test Example 1), judged from mortality: judged by the criterion of Test Example 1
Method in brief: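 Oviposition by adults on Chinese cabbage seedling; immersion; air-dry; 25° C room. Count of hatched larvae at day 6 post-immersion → mortality → effect graded by criterion. Triplicate, 10 insects/group.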

[2] = test system: rice leafroller (Cnaphalocrocis medinalis); experiment: Insecticidal effect on rice leafroller (Test Example 3); conditions: 500 ppm, 25° C., humidity 70%; for Insecticidal effect on rice leafroller (Test Example 3), judged grade / Insecticidal effect (Test Example 3), judged from mortality: rice lamina dip; for Insecticidal effect on rice leafroller (Test Example 3), judged grade: third-instar larvae; for Insecticidal effect on rice leafroller (Test Example 3), judged grade / Insecticidal effect, Test Example 3: four days after inoculation; for Insecticidal effect, Test Example 3: rice lamina immersed; for Insecticidal effect (Test Example 3), judged from mortality: 4 days after inoculation
Method in brief: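 Insecticidal effect is judged by a predefined criterion from dead/alive counts four days after infesting air-dried lamina with third-instar larvae, kept on moistened filter paper at 25° C, 70% humidity.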

[3] = test system: common cutworm (Spodoptera Litura); experiment: Insecticidal effect on common cutworm (Test Example 2); conditions: 500 ppm, 25° C.; for Insecticidal effect on common cutworm (Test Example 2), judged grade / Insecticidal effect (Test Example 2), judged from mortality: cabbage leaf dip; for Insecticidal effect on common cutworm (Test Example 2), judged grade: second-instar larvae; for Insecticidal effect on common cutworm (Test Example 2), judged grade / Insecticidal effect, Test Example 2: eight days after inoculation; for Insecticidal effect, Test Example 2: cabbage leaf immersed; for Insecticidal effect (Test Example 2), judged from mortality: 8 days after inoculation
Method in brief: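 After the treated material air-dries, it goes into a dish, second-instar larvae are added, and the dish is closed. Incubation runs at 25° C. On day eight, dead and living larvae are scored, and the calculated mortality is rated on an effect scale.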

[4] = judged by the mortality criterion of Test Example 1
[5] = third-instar larvae of rice leafroller
[6] = second-instar larvae of common cutworm
[7] = mortality judged by criterion of Test Example 1
[8] = rice leafroller third-instar larvae
[9] = common cutworm second-instar larvae

## CCc1cccc(C(=O)NC(C)C)c1C(=O)Nc1ccc(Cl)cc1C [compound 753]
[1]
  Insecticidal effect on diamondback moth (Test Example 1), judged grade: A (100)
[2]
  Insecticidal effect on rice leafroller (Test Example 3), judged grade: D (79-50)
[3]
  Insecticidal effect on common cutworm (Test Example 2), judged grade: A (100)

## Cc1cc(OC(F)F)c(Cl)cc1NC(=O)c1c(I)cccc1C(=O)NC(C)C [compound 470]
[1]
  Insecticidal effect on diamondback moth (Test Example 1), judged grade: A (100)
[2]
  Insecticidal effect on rice leafroller (Test Example 3), judged grade: C (89-80)
[3]
  Insecticidal effect on common cutworm (Test Example 2), judged grade: C (89-80)

## COc1ccc(NC(=O)c2cccc(Br)c2C(=O)NC(C)C)c(C)c1C [compound 285]
[1]; [4]
  Insecticidal effect, Test Example 1: A (100)
[2]; [5]
  Insecticidal effect, Test Example 3: A (100)
[3]; [6]
  Insecticidal effect, Test Example 2: D (79-50)

## CCN(CC)C(=O)c1c(Cl)cccc1C(=O)Nc1ccc(C(F)(F)C(F)(F)F)cc1C [compound 1535]
[1]
  Insecticidal effect (Test Example 1), judged from mortality: A (100)
[2]; [5]
  Insecticidal effect (Test Example 3), judged from mortality: A (100)
[3]; [6]
  Insecticidal effect (Test Example 2), judged from mortality: A (100)

## Cc1cc(Oc2ccc(C(F)(F)F)cn2)ccc1NC(=O)c1ccccc1C(=O)NC(C)C [compound 78]
[1]; [4]
  Insecticidal effect, Test Example 1: A (100)
[2]; [5]
  Insecticidal effect, Test Example 3: A (100)
[3]; [6]
  Insecticidal effect, Test Example 2: A (100)

## Cc1cc(C(F)(C(F)(F)F)C(F)(F)F)ccc1NC(=O)c1cccc(C(F)(F)F)c1C(=O)NC(C)(C)C [compound 1232]
[1]; [7]
  Insecticidal effect, Test Example 1: A (100)
[2]; [8]
  Insecticidal effect, Test Example 3: A (100)
[3]; [9]
  Insecticidal effect, Test Example 2: A (100)

## CC(C)NC(=O)c1c(C(=O)Nc2ccc(Cl)c(Cl)c2)cccc1[N+](=O)[O-] [compound 636]
[1]
  Insecticidal effect on diamondback moth (Test Example 1), judged grade: A (100)
[2]
  Insecticidal effect on rice leafroller (Test Example 3), judged grade: A (100)
[3]
  Insecticidal effect on common cutworm (Test Example 2), judged grade: D (79-50)

## Cc1cc(OC(F)F)ccc1NC(=O)c1cccc(Br)c1C(=O)NC(C)C [compound 288]
[1]; [4]
  Insecticidal effect, Test Example 1: A (100)
[2]; [5]
  Insecticidal effect, Test Example 3: A (100)
[3]; [6]
  Insecticidal effect, Test Example 2: A (100)

## CC(C)NC(=O)c1c(C(=O)Nc2ccc(OC(F)(F)F)cc2Br)cccc1[N+](=O)[O-] [compound 705]
[1]
  Insecticidal effect on diamondback moth (Test Example 1), judged grade: A (100)
[2]
  Insecticidal effect on rice leafroller (Test Example 3), judged grade: A (100)
[3]
  Insecticidal effect on common cutworm (Test Example 2), judged grade: D (79-50)

## Cc1cc(C(F)(F)C(F)(F)F)ccc1NC(=O)c1cccc(I)c1C(=O)NC1CC1 [compound 1024]
[1]; [7]
  Insecticidal effect, Test Example 1: A (100)
[2]; [8]
  Insecticidal effect, Test Example 3: A (100)
[3]; [9]
  Insecticidal effect, Test Example 2: A (100)

## Cc1cc(OC(F)(F)C(F)C(F)(F)F)ccc1NC(=O)c1cccc(F)c1C(=O)NC(C)C (stereo not drawn) [compound 514]
[1]
  Insecticidal effect on diamondback moth (Test Example 1), judged grade: A (100)
[2]
  Insecticidal effect on rice leafroller (Test Example 3), judged grade: A (100)
[3]
  Insecticidal effect on common cutworm (Test Example 2), judged grade: A (100)

## CC(C)NC(=O)c1c(Br)cccc1C(=O)Nc1ccc(C(F)(F)F)cc1 [compound 261]
[1]; [4]
  Insecticidal effect, Test Example 1: A (100)
[2]; [5]
  Insecticidal effect, Test Example 3: D (79-50)
[3]; [6]
  Insecticidal effect, Test Example 2: A (100)

## Cc1cc(C(F)(F)C(F)(F)C(F)(F)C(F)(F)F)ccc1NC(=O)c1c(I)cccc1C(=O)NC(C)C [compound 440]
[1]; [4]
  Insecticidal effect, Test Example 1: A (100)
[2]; [5]
  Insecticidal effect, Test Example 3: B (99-90)
[3]; [6]
  Insecticidal effect, Test Example 2: C (89-80)

## Cc1cc(C(F)(C(F)(F)F)C(F)(F)F)ccc1NC(=O)c1ccc(I)cc1C(=O)NC(C)C [compound 1250]
[1]; [7]
  Insecticidal effect, Test Example 1: A (100)
[2]; [8]
  Insecticidal effect, Test Example 3: A (100)
[3]; [9]
  Insecticidal effect, Test Example 2: A (100)

## CCN(C(=O)c1c(I)cccc1C(=O)Nc1ccc(OC(F)(F)F)cc1)C(C)C [compound 1160]
[1]; [7]
  Insecticidal effect, Test Example 1: A (100)
[2]; [8]
  Insecticidal effect, Test Example 3: A (100)
[3]; [9]
  Insecticidal effect, Test Example 2: A (100)

## CSc1cc(NC(=O)c2cccc(I)c2C(=O)NC(C)C)ccc1C(F)(C(F)(F)F)C(F)(F)F [compound 1766]
[1]
  Insecticidal effect (Test Example 1), judged from mortality: A (100)
[2]; [5]
  Insecticidal effect (Test Example 3), judged from mortality: A (100)
[3]; [6]
  Insecticidal effect (Test Example 2), judged from mortality: A (100)

## Cc1cc(OC(F)(F)C(F)OC(F)(F)F)ccc1NC(=O)c1ccccc1C(=O)NC(C)C (stereo not drawn) [compound 67]
[1]; [4]
  Insecticidal effect, Test Example 1: A (100)
[2]; [5]
  Insecticidal effect, Test Example 3: A (100)
[3]; [6]
  Insecticidal effect, Test Example 2: A (100)

## CCc1cc(C(F)(F)C(F)(F)F)ccc1NC(=O)c1cccc(Cl)c1C(=O)NC(C)C [compound 1495]
[1]
  Insecticidal effect (Test Example 1), judged from mortality: A (100)
[2]; [5]
  Insecticidal effect (Test Example 3), judged from mortality: A (100)
[3]; [6]
  Insecticidal effect (Test Example 2), judged from mortality: A (100)

## Cc1cc(C(F)(F)C(F)(F)F)ccc1NC(=O)c1cccc(I)c1C(=O)NC1CCCC1 [compound 991]
[1]; [7]
  Insecticidal effect, Test Example 1: A (100)
[2]; [8]
  Insecticidal effect, Test Example 3: A (100)
[3]; [9]
  Insecticidal effect, Test Example 2: A (100)

## CCc1cc(C(F)(F)C(F)(F)F)ccc1NC(=O)c1cccc(I)c1C(=O)NC(C)C [compound 1017]
[1]; [7]
  Insecticidal effect, Test Example 1: A (100)
[2]; [8]
  Insecticidal effect, Test Example 3: A (100)
[3]; [9]
  Insecticidal effect, Test Example 2: A (100)

## CC(C)NC(=O)c1cccc(I)c1C(=O)Nc1ccc(C(F)(F)C(F)(F)C(F)(F)F)cc1 [compound 417]
[1]; [4]
  Insecticidal effect, Test Example 1: A (100)
[2]; [5]
  Insecticidal effect, Test Example 3: A (100)
[3]; [6]
  Insecticidal effect, Test Example 2: A (100)

## Cc1cc(F)ccc1NC(=O)c1cccc(I)c1C(=O)NC(C)C [compound 368]
[1]; [4]
  Insecticidal effect, Test Example 1: A (100)
[2]; [5]
  Insecticidal effect, Test Example 3: A (100)
[3]; [6]
  Insecticidal effect, Test Example 2: A (100)

## CC(C)(C)NC(=O)c1c(I)cccc1C(=O)Nc1ccc2c(c1)OC(F)C(F)(F)O2 (stereo not drawn) [compound 1150]
[1]; [7]
  Insecticidal effect, Test Example 1: A (100)
[2]; [8]
  Insecticidal effect, Test Example 3: A (100)
[3]; [9]
  Insecticidal effect, Test Example 2: A (100)

## CCN(CC)C(=O)c1c(Cl)cccc1C(=O)Nc1ccc(OC(F)(F)F)cc1 [compound 1544]
[1]
  Insecticidal effect (Test Example 1), judged from mortality: A (100)
[2]; [5]
  Insecticidal effect (Test Example 3), judged from mortality: A (100)
[3]; [6]
  Insecticidal effect (Test Example 2), judged from mortality: A (100)

## CC(C)NC(=O)c1c(Cl)cccc1C(=O)Nc1ccc(C(F)(F)C(F)(F)C(F)(F)F)cc1 [compound 90]
[1]; [4]
  Insecticidal effect, Test Example 1: A (100)
[2]; [5]
  Insecticidal effect, Test Example 3: B (99-90)
[3]; [6]
  Insecticidal effect, Test Example 2: A (100)

## COc1cc(NC(=O)c2cccc([N+](=O)[O-])c2C(=O)NC(C)C)cc(C(F)(F)F)c1 [compound 691]
[1]
  Insecticidal effect on diamondback moth (Test Example 1), judged grade: A (100)
[2]
  Insecticidal effect on rice leafroller (Test Example 3), judged grade: C (89-80)
[3]
  Insecticidal effect on common cutworm (Test Example 2), judged grade: D (79-50)

## CC(C)NC(=O)c1c(F)cccc1C(=O)Nc1ccc(C(F)(F)F)cc1Cl [compound 504]
[1]
  Insecticidal effect on diamondback moth (Test Example 1), judged grade: A (100)
[2]
  Insecticidal effect on rice leafroller (Test Example 3), judged grade: A (100)
[3]
  Insecticidal effect on common cutworm (Test Example 2), judged grade: A (100)

## Cc1cc(C(F)(F)C(F)(F)F)ccc1NC(=O)c1cccc(Cl)c1C(=O)NC(C)(C)C#Cc1ccc(F)cc1F [compound 1650]
[1]
  Insecticidal effect (Test Example 1), judged from mortality: A (100)
[2]; [5]
  Insecticidal effect (Test Example 3), judged from mortality: A (100)
[3]; [6]
  Insecticidal effect (Test Example 2), judged from mortality: A (100)

## CCN(CC)C(=O)c1c(I)cccc1C(=O)Nc1ccc(-c2ccc(F)cc2)cc1C [compound 1614]
[1]
  Insecticidal effect (Test Example 1), judged from mortality: A (100)
[2]; [5]
  Insecticidal effect (Test Example 3), judged from mortality: A (100)
[3]; [6]
  Insecticidal effect (Test Example 2), judged from mortality: C (89-80)

## Cc1cc(C(F)(F)C(F)(F)F)ccc1NC(=O)c1cccc(I)c1C(=O)NC(C)C(C)C (stereo not drawn) [compound 1033]
[1]; [7]
  Insecticidal effect, Test Example 1: A (100)
[2]; [8]
  Insecticidal effect, Test Example 3: A (100)
[3]; [9]
  Insecticidal effect, Test Example 2: A (100)

## Cc1cc(C(F)(F)C(F)(F)Br)ccc1NC(=O)c1ccccc1C(=O)NC(C)C [compound 63]
[1]; [4]
  Insecticidal effect, Test Example 1: A (100)
[2]; [5]
  Insecticidal effect, Test Example 3: A (100)
[3]; [6]
  Insecticidal effect, Test Example 2: B (99-90)
